# Measured values from US20240415152A1, “METHODS FOR IMPROVING HEALTH OF FISH, USE OF ZINC OXIDE PARTICLES FOR THE PREPARATION OF FISH FEED, METHODS FOR PREPARING FISH FEED FOR FISH, AND FISH FEED THEREOF” (City University of Hong Kong, priority 2023, published 2024).
# Experiments:
# Format in all cases: in vivo, Trachinotus ovatus
# Conditions in all cases: dietary 60 mg/kg, 5 weeks
# [1] = system: intestinal tissue of fish; test: In situ spatial quantitative analysis of intestinal tissue (HE sections, tissue cytometry)
# Method: After dietary exposure, all fish were starved for 24 h, and the ice-water was used to anesthetize fish from different groups. To avoid sample contamination during sampling, we first thoroughly disinfected the sampling table with 75% alcohol, and then spread a disposable tablecloth and disinfected it twice. All metal dissection tools were high-temperature sterilization. Each treatment group shared one set of dissection tools. After each set of samples, the disposable tablecloth was replaced and thoroughly sterilized for the following group sampling. The tubes (sterile and enzyme-free) for the temporary storage of samples were purchased from Corning. Inc. The alcohol lamp was kept on throughout the sampling process. Fish's weights were measured immediately. All individual fish per net were swabbed using 75% alcohol. After that, we used a 1 mL disposable syringe to collect the blood from the caudal vertebra of the fish. The blood was quickly drawn into the pre-cooled 1.5 mL-centrifuge tubes (RNA-free tube). Then, all the blood samples were put in the 4° C. refrigerator for 24 h, and then centrifuged (4° C., 3000 r/min, 10 min) to obtain the serum samples for biochemical analysis. The blood-drawn fish were quickly dissected to obtain the gill, intestine content, intestine, liver, and muscle. Each replicated sample contained 6 fish, resulting in 18 fish per treatment group (with 3 replicates). All these samples were immediately frozen in liquid nitrogen and transferred to −80° C. refrigerator using dry ice, except the intestine for histomorphological study. For histomorphological analysis of the intestine, the tissues (3 fish per treatment group) were firstly dissected in the medical ice sheet. After 0.9% NaCl solution quick washing, the intestine tissues were fixed in the 4% paraformaldehyde (BL539A, Biosharp) for 48 h. The fixed intestinal samples were carefully transferred to 75% alcohol for long-term preservation.
# The fixed intestine tissues were removed from the fixed liquid and then carefully trimmed with the ventilation cupboard. The trimmed tissues with different labels were placed in the dehydration box in the dehydrator (Donatello, DIAPATH) to dehydrate with gradient alcohol. The process was as follows: 75% alcohol 4 h, 85% alcohol 2 h, 90% alcohol 2 h, 95% alcohol 1 h, anhydrous ethanol I 30 min, anhydrous ethanol II 30 min, alcohol benzene 5˜10 min, xylene II 5˜10 min, 65° C. melting paraffin I1 h, 65° C. melting paraffin II 1 h, 65° C. melting paraffin Ill 1 h. The tissues were removed from the dehydration box and placed in the embedding frame of the embedding machine (JB-P5, Wuhan Junjie Electronics Co., Ltd), subsequently the frozen platform at −20° C. was used to cool the dewatering box. The solidified wax block was removed from the embedded frame and placed on the pathology slicer (RM2016, Shanghai Leica Instrument Co., Ltd) to obtain 4 μm slice thickness. The tissues were then flattened when the slice floated on the 40° C. warm water of the spreading machine. […]
# In situ spatial quantitative identification of HE sections were imaged and analyzed by tissue cytometry. Briefly, the images were obtained on the TissueFAXS quantitative imaging system (TissueGnostics, Vienna, Austria). […] The scanned files were imported into the strataquest professional organization single-cell quantitative analysis system (v.7.0.1.176) for image processing and analysis. […]
# golden pompano = test: Growth performance (final weight, weight gain rate) after 5-week dietary exposure
# Method: Fish exposure experiments were conducted in strict accordance with the Chinese Guidelines for Ethical Review of Laboratory Animal Welfare (GBIT 35892-2018). Three groups of golden pompanos (initial body wet weight of about 6 g) were randomly chosen and split after 14 days of acclimatization. There were three replicated net cages in Mirs Bay (Nanao, Shenzhen, China) for each group, with 30 fish in each duplicate. Each day, the experimental meals were given two-time (8:00 h, and 16:00 h) to golden pompano until satiation during the 5-week exposure experiment. The water was 29-32° C., dissolved oxygen 6.8-7.2 mg/L, and salinity 28-30‰ during dietary exposure.
# After dietary exposure, all fish were starved for 24 h, and the ice-water was used to anesthetize fish from different groups. To avoid sample contamination during sampling, we first thoroughly disinfected the sampling table with 75% alcohol, and then spread a disposable tablecloth and disinfected it twice. All metal dissection tools were high-temperature sterilization. Each treatment group shared one set of dissection tools. After each set of samples, the disposable tablecloth was replaced and thoroughly sterilized for the following group sampling. The tubes (sterile and enzyme-free) for the temporary storage of samples were purchased from Corning. […] Fish's weights were measured immediately. […]
# [2] = system: intestinal microorganism of golden pompano; test: Bacterial 16S ribosomal RNA gene sequencing of intestine content (ASV-based)
# Excerpt: DNA samples from the intestine content (only mucosa without the muscularis) were isolated using the MP Fast® SPIN DNA Kit. Each replicated sample contained 6 fish, resulting in 18 fish per treatment group. DNA extracts were amplified using primers (338F_806R) for the V3-V4 region of the 16S rRNA gene. Procedures for the DNA extracts and PCR amplification and then illuminma Miseq sequencing are described as follows.
# DNA extraction and PCR amplification: The quality of DNA extraction was determined using 1% agarose gel electrophoresis, and DNA concentration and purity were determined using NanoDrop2000. […] The 16S rRNA gene V3-V4 variable region was amplified by PCR using 338F (5′-[…]-3′) and 806R (5′-[…]-3′). The amplification procedure was as follows: 95° C. pre-denaturation for 3 min, 27 cycles (95° C. denaturation for 30 s, 55° C. annealing for 30 s, 72° C. extension for 30 s), followed by 72° C. stable extension for 10 min and finally storage at 4° C. (PCR instrument: ABI GeneAmp® Model 9700). FastPfu buffer 4 μL, 2.5 mM dNTPs 2 μL, upstream primer (5 uM) 0.8 μL, downstream primer (5 uM) 0.8 μL, TransStart FastPfu DNA polymerase 0.4 μL, template DNA 10 ng, ddH2O make up to 20 μL. 3 replicates for each sample.
# Illumina Miseq sequencing: PCR products from the same sample were mixed and recovered using a 2% agarose gel. Fluorometer (Promega, USA) was used to quantify the recovered products. Library construction was performed using NEXTflex™ Rapid DNA-Seq Kit (Bioo Scientific, USA): (1) splice linkage; (2) removal of splice self-linked fragments using magnetic bead screening; (3) enrichment of library template using PCR amplification; (4) recovery of PCR products by magnetic beads to obtain the final library. Sequencing was performed using Illumina's Miseq PE300 platform (Shanghai Meiji Biomedical Technology Co., Ltd.).
# For Illumina Miseq PE300, products were pooled by sequencing equimolar and paired-end sequences (2×300) to obtain the raw data. Please see description for raw data stitching and optimization. After the PE reads obtained by MiSeq sequencing were split, the double-ended reads were first quality controlled and filtered according to the sequencing quality. Meanwhile, according to the overlapping relationship between double-ended reads, the optimized data after quality control splicing were obtained. […]
# Raw data stitching and optimization: Fastp (version 0.20.0) software was used for quality control of the original sequencing sequence, and flash was used (version 1.2.7) software for splicing: (1) filter the bases with a mass value of less than 20 at the tail of reads and set a 50 bp window. […]
smiles,measurement,setting,value
"O=S(=O)([O-])[O-].[Zn+2] [ZnSO4, zinc sulphate]",intestinal villus area,[1],reduced
same,villus height distribution (changes in the fish villi intestine),[1],0.05-0.33 μm
same,area of basal layer of fish intestine,[1]; compared with the other groups,reduced
same,total number of goblet cells,[1]; compared with the other groups,reduced
same,villus/crypt ratio (intestinal/crypt ratio),[1]; compared with the other groups,reduced
same,WGR (weight gain rate),golden pompano,268.78%
same,final weight,golden pompano; initial body wet weight about 6 g,22.30 g
same,genus-level differential microorganisms in fish intestine,[2],significantly enriched Photobacterium and Mycoplasma
same,main intestinal microorganisms at phylum level,[2],"Proteobacteria, Firmicutes and Cyanobacteria"
same,unique reads of microorganisms at ASV level (Venn diagram),[2],808
same,unique reads of microorganisms at genus level (Venn diagram),[2],137
